Measurements as given in US9157062B2, “Compositions and methods for promoting the generation of PDX1+ pancreatic cells” (President and Fellows of Harvard College, priority 2008, dated 2015).
Counter-ions that a name gives are not always drawn. Like-named read-outs stand apart in the source and are kept apart here.

B1: FGF10: mitogen (fibroblast growth factor) reported to be involved in pancreatic development, from R&D systems (protein, UniProt O15520 38-208, looked up)
Fibroblast growth factor 10: QALGQDMVSPEATNSSSSSFSSPSSAGRHVRSYNHLQGDVRWRKLFSFTKYFLKIEKNGKVSGTKKENCPYSILEITSVEIGVVAVKAINSNYYLAMNKKGKLYGSKEFNNDCKLKERIEENGYNTYASFNWQHNGRQMYVALNGKGAPRRGQKTRRKNTSAHFLPMVVHS

Tests used:
[1] = test system: HUES8-derived population (Pdx1+ cells); assay: Pdx1 antibody staining of treated HUES8-derived population; assay type: cell-based, human; conditions: for percentage of Pdx1+ cells, PKC antagonists in the presence of ILV: 300 nM ILV plus 1 μM BISI or 10 μM Gö 6983, 4 days; for percentage of Pdx1+ cells, PKC agonists in the absence of ILV: HUES8-derived definitive endoderm population, 500 nM TPB or 14 nM PMA
Method: (§1) To generate a starting population, HUES cells were cultured on MEF feeder cells until 80-90% confluent, then treated with 25 ng/ml Wnt3a (R&D systems)+100 ng/ml Activin A (R&D systems) in advanced RPMI (A-RPMI, Invitrogen) supplemented with 1×L-Glu and 1×PS for 1 day, and then 100 ng/ml Activin A in A-RPMI supplemented with 1×L-Glu, 1×PS and 0.2% FBS (Invitrogen). Two days later, the media was changed to 50 ng/ml FGF10 (R&D systems)+0.25 μM KAAD-CYC (Calbiochem) in A-RPMI supplemented with 1×L-Glu, 1×PS and 2% FBS and maintained for additional 2 days. Cells were then transferred to 50 ng/ml FGF10+0.25 μM KAAD-CYC+2 μM RA (Sigma) in DMEM supplemented with 1×L-Glu, 1×PS, 1×B27 (Invitrogen) and cultured for an additional 4 days. ILV was obtained from Axxora, KAAD-CYC, TPB, PMA, BISI, Gö 6983, U0126 and PD98059 were obtained from Calbiochem and RA were obtained from Sigma.
(§2) Cells were fixed with 10% formalin solution (Sigma) for 20 min at room temperature. Immunostaining was carried out with standard protocols. The following primary antibodies were used: goat anti-Pdx1 (1:500; R&D system); rabbit anti-FOXA2 (1:500; Upstate); rabbit anti-HNF6 (1:200; Santa Cruz Biotech); guinea pig anti-insulin (1:1000; Dako); rabbit anti-c-peptide (1:500; Linco); rabbit anti-amylase (1:200, Sigma); goat anti-HNF1β (1:100, Santa Cruz Biotech); and biotinylated DBA (1:400; Vector Lab). Alexa-488-, Alexa-555, and Alexa-647-conjugated donkey antibodies against mouse, rabbit, guinea pig and goat, and Pacific Blue conjugate-streptavidin (Invitrogen) were used at 1:300 dilution.
To determine whether PKC signaling is being activated in HUES-derived cells, HUES8-derived definitive endoderm population was treated with two PKC agonists, TPB ((2S,5S)-(E,E)-8-(5-(4-(trifluoromethyl)phenyl)-2,4-pentadienoylamino)benzolactam) and PMA (phorbol-12-myristate-13-acetate), in the absence of ILV. […] Furthermore, HUES8-derived population was treated with two PKC antagonists, BISI (Bisindolylmaleimide I) and Gö 6983, in the presence of ILV.
Experiments were performed to monitor downstream signaling by PKC. Since ERK signaling has been reported to be regulated by PKC (Ueda et al., 1996), the activity of ERK signaling was examined with Western blotting to detect the phosphorylation of ERK1/2 at Thr-202/Tyr-204.

[2] = test system: HUES9-derived population (Pdx1+ cells); assay: High throughput screen for compounds increasing Pdx1+ cells; assay type: cell-based, human; conditions: HUES9-derived cells, 10 μM, 1 μM and 0.1 μM, four days
Method: as §1
For a high throughput screen, the starting material was hESCs (HUES9 cells) that were induced to pancreatic lineage using a slightly modified version of previously published protocols (D'Amour et al., 2006; Jiang et al., 2007), as described in Example 1. After 9 days of stepwise differentiation, a heterogeneous population of cells was generated containing cells that stained strongly, weakly or not at all with a Pdx1 antibody. Any cell that stained with the Pdx1 staining antibody was counted as Pdx1^+ cells regardless of staining intensity. Together, the Pdx1^+ cells comprises 5.1±1.8% of the total cell number.
To carry out the screen, the cells were trypsinized and plated on 804G-coated 384-well plates at 6000 cells/well using chemically defined media (DMEM supplemented with 2 mM L-Glu, 1×PS, 1×B27). After overnight incubation, compounds were screened by adding them to provide a final concentration of 10 μM, 1 μM and 0.1 μM. Four days later, the cells were stained with Pdx1 antibody and the plates were analyzed with Opera high content screening system (PerkinElmer).
The wells in which the percentage of Pdx1^+ cells is higher than present at day 1 and higher than day 5 treated with DMSO were selected as primary hits. Compounds that increase both the number and percentage of Pdx1^+ cells were picked as primary hits. Eleven compounds produced hits. (FIG. 7, Table I in FIG. 9 and formulas in FIG. 10). These eleven compounds were (−)-Indolactam V (FIG. 1c and Compound I in Table 1) boldine (Compound II), rotenone (Compound III), ethopropazine hydrochloride (Compound IV), cedrelone (Compound V), prieurianin (Compound VI), strophanthidin (Compound VII), trimeprazine tartrate (Compound VIII), terconazole (Compound IX), dimethisoquin hydrochloride (Compound X), harmine hydrochloride (Compound XI).
as §2

PKCμ = target: T1, PKCμ (Homo sapiens, UniProt Q15139); conditions: Gschwendt et al., 1996; cited from earlier work
T1 sequence (Q15139 1-912): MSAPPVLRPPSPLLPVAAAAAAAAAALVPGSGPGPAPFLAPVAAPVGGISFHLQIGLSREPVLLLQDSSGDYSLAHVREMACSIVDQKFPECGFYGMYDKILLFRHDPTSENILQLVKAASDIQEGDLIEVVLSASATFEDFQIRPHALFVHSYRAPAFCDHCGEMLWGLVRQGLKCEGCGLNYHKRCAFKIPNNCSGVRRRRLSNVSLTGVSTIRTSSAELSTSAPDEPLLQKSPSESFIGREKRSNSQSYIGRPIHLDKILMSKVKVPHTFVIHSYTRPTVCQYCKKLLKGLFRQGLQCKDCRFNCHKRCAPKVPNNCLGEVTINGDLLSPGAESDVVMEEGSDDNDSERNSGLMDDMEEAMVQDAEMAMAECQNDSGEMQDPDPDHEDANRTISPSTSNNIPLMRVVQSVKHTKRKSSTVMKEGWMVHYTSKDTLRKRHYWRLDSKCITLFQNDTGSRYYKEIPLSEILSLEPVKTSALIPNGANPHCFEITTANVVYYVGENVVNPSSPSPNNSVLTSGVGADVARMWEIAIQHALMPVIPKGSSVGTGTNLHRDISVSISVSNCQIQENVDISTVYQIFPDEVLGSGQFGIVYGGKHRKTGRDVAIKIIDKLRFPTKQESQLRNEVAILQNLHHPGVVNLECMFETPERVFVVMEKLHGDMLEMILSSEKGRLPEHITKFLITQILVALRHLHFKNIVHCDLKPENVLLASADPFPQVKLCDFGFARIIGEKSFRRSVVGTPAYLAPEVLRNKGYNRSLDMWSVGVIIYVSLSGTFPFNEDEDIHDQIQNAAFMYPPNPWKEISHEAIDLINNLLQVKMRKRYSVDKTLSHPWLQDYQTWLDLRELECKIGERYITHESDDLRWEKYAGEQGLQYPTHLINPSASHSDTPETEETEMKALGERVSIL

Molecule | primary hits (increase both the number and percentage of Pdx1+ cells) [2] | other results
CN(C)CCCn1cc(C2=C(c3c[nH]c4ccccc34)C(=O)NC2=O)c2ccccc21 [BISI, Bisindolylmaleimide I] | – | percentage of Pdx1+ cells, PKC antagonists in the presence of ILV ([1]; HUES8-derived population): 0.6±0.1%
COc1cc2c(cc1O)C[C@H]1c3c(cc(O)c(OC)c3-2)CCN1C [Compound II, boldine] | hits | –
C=C(C)[C@H]1Cc2c(ccc3c2O[C@@H]2COc4cc(OC)c(OC)cc4[C@@H]2C3=O)O1 [Compound III, rotenone] | hits | –
CCN(CC)C(C)CN1c2ccccc2Sc2ccccc21 (stereo not drawn) [Compound IV, ethopropazine hydrochloride] | hits | –
CC(C)N1CCN(c2ccc(OCC3COC(Cn4cncn4)(c4ccc(Cl)cc4Cl)O3)cc2)CC1 (stereo not drawn) [Compound IX, terconazole] | hits | –
N#CC(=C(/N)Sc1ccccc1N)/C(C#N)=C(\N)Sc1ccccc1N [Compound U0126] | – | percentage of Pdx1+ cells, MEK/ERK inhibitors together with ILV [1]: 0.3±0.2%
CC1(C)C(=O)C=C[C@@]2(C)C1=C(O)C(=O)[C@]1(C)[C@@H]2CC[C@@]2(C)[C@H](c3ccoc3)C[C@H]3O[C@]321 [Compound V, cedrelone] | hits | –
C=C1[C@@H]([C@@]2(C)[C@@H](OC(C)=O)CC(=O)O[C@](C)(COC(C)=O)[C@@H]2C(=O)OC)[C@@H](OC=O)[C@H](OC(=O)[C@H](O)[C@H](C)CC)[C@@]2(C)[C@H](c3ccoc3)CC(=O)[C@]12O [Compound VI, prieurianin] | hits | –
C[C@]12CC[C@H]3[C@@H](CC[C@]4(O)C[C@@H](O)CC[C@]34C=O)[C@@]1(O)CC[C@@H]2C1=CC(=O)OC1 [Compound VII, strophanthidin] | hits | –
CCCCc1cc2ccccc2c(OCCN(C)C)n1 [Compound X, dimethisoquin hydrochloride] | hits | –
COc1ccc2c(c1)[nH]c1c(C)nccc12.Cl [Compound XI, harmine hydrochloride] | hits | –
COc1ccc2c(c1)c(C1=C(c3c[nH]c4ccccc34)C(=O)NC1=O)cn2CCCN(C)C [Gö 6983] | – | percentage of Pdx1+ cells, PKC antagonists in the presence of ILV ([1]; HUES8-derived population): 0.8±0.2%; suppression of PKCμ kinase activity (PKCμ): not effective
COc1cccc(-c2cc(=O)c3ccccc3o2)c1N [PD098059] | – | percentage of Pdx1+ cells, MEK/ERK inhibitors together with ILV ([1]; 300 nM ILV plus 50 μM PD098059 or 10 μM U0126, 4 days): 0.4±0.2%
CCCCCCCCCCCCCC(=O)O[C@@H]1[C@@H](C)[C@@]2(O)[C@@H](C=C(CO)C[C@]3(O)C(=O)C(C)=C[C@@H]23)[C@@H]2C(C)(C)[C@]12OC(C)=O [PMA, phorbol-12-myristate-13-acetate] | – | percentage of Pdx1+ cells, PKC agonists in the absence of ILV ([1]; 4 days): 21.3±4.0%
CC(C)[C@H]1C(=O)N[C@H](CO)Cc2cc(NC(=O)/C=C/C=C/c3ccc(C(F)(F)F)cc3)ccc2N1C [TPB, (2S,5S)-(E,E)-8-(5-(4-(trifluoromethyl)phenyl)-2,4-pentadienoylamino)benzolactam] | – | percentage of Pdx1+ cells, PKC agonists in the absence of ILV ([1]; 4 days): 15.4±2.9%
trimeprazine tartrate [Compound VIII] | hits | –
B1 | – | percentage of cells stained by Pdx1 antibody ([1]; HUES8-derived population, 4 days, 300 nM ILV and/or 50 ng/ml FGF10): 5.7±2.3%
